Data reported in the CheMixHub viscosity set.
± gives the uncertainty stated by the source.

Test: xn = mol fraction of the nth substance listed

CCCCn1cc[n+](C)c1.F[P-](F)(F)(F)(F)F + CS(C)=O
Conditions | viscosity [mPa·s]
298.15 K, 101 kPa, x1 = 0.7812 | 117.5 ± 28

Clc1ccccc1 + CS(C)=O
viscosity [mPa·s]
Conditions | 298.15 K | 299 K | 308.15 K | 318.15 K
101 kPa, x2 = 0.0871 | – | 1.227 | – | –
101 kPa, x2 = 0.2483 | – | 1.401 | – | –
101 kPa, x2 = 0.462 | – | 1.715 | – | –
101 kPa, x2 = 0.5887 | – | 2.067 | – | –
101 kPa, x2 = 0.7046 | – | 2.357 | – | –
101 kPa, x2 = 0.8612 | – | 2.819 | – | –
101.3 kPa, x1 = 0.035 | 1.865 ± 0.049 | – | 1.559 ± 0.041 | 1.273 ± 0.034
101.3 kPa, x1 = 0.072 | 1.803 ± 0.048 | – | 1.474 ± 0.039 | 1.224 ± 0.032
101.3 kPa, x1 = 0.148 | 1.682 ± 0.044 | – | 1.39 ± 0.04 | 1.142 ± 0.03
101.3 kPa, x1 = 0.23 | 1.564 ± 0.041 | – | 1.29 ± 0.03 | 1.098 ± 0.029
101.3 kPa, x1 = 0.317 | 1.421 ± 0.038 | – | 1.17 ± 0.03 | 1.021 ± 0.027
101.3 kPa, x1 = 0.411 | 1.299 ± 0.034 | – | 1.077 ± 0.028 | 0.927 ± 0.025
101.3 kPa, x1 = 0.511 | 1.193 ± 0.032 | – | 0.986 ± 0.026 | 0.865 ± 0.023
101.3 kPa, x1 = 0.619 | 1.085 ± 0.029 | – | 0.929 ± 0.025 | 0.833 ± 0.022
101.3 kPa, x1 = 0.736 | 0.966 ± 0.026 | – | 0.823 ± 0.022 | 0.742 ± 0.02
101.3 kPa, x1 = 0.863 | 0.866 ± 0.023 | – | 0.733 ± 0.019 | 0.668 ± 0.018
101.3 kPa, x1 = 0.936 | 0.826 ± 0.022 | – | 0.704 ± 0.019 | 0.643 ± 0.017
101.33 kPa, x2 = 0.1 | 0.826 ± 0.008 | – | 0.738 ± 0.007 | 0.656 ± 0.007
101.33 kPa, x2 = 0.2 | 0.905 ± 0.009 | – | 0.807 ± 0.008 | 0.709 ± 0.007
101.33 kPa, x2 = 0.3 | 0.993 ± 0.01 | – | 0.88 ± 0.009 | 0.769 ± 0.008
101.33 kPa, x2 = 0.4 | 1.094 ± 0.011 | – | 0.958 ± 0.009 | 0.832 ± 0.008
101.33 kPa, x2 = 0.5 | 1.206 ± 0.012 | – | 1.043 ± 0.01 | 0.902 ± 0.009
101.33 kPa, x2 = 0.6 | 1.329 ± 0.013 | – | 1.136 ± 0.011 | 0.981 ± 0.01
101.33 kPa, x2 = 0.7 | 1.466 ± 0.014 | – | 1.239 ± 0.012 | 1.068 ± 0.011
101.33 kPa, x2 = 0.8 | 1.616 ± 0.016 | – | 1.361 ± 0.013 | 1.165 ± 0.011
101.33 kPa, x2 = 0.9 | 1.784 ± 0.017 | – | 1.5 ± 0.015 | 1.274 ± 0.013
